Experiments:
[1] = system: soybean rust fungus (Phakopsora pachyrhizi); test: Test on spore germination inhibition against soybean rust fungus; assay type: cell-based; conditions: single use, 25° C., 5 hours
Method: Test Example 1: Test on Spore Germination Inhibition Against Soybean Rust Fungus (Phakopsora pachyrhizi)
A spore suspension of soybean rust fungus was added to an aqueous chemical solution prepared so as to contain each test compound in a predetermined concentration and the whole was kept in a moist chamber at 25° C. for 5 hours. Thereafter, the presence of spore germination was investigated using a microscope, the spore germination rate was determined, and the spore germination inhibition rate was determined according to the following calculation formula. Spore germination inhibition rate=(1−a/b)×100 • a: spore germination rate in treated section, b: spore germination rate in untreated section Colby's formula=(X+Y)−XY/100 • X: spore germination inhibition rate in single use of ingredient (a) • Y: spore germination inhibition rate in single use of ingredient (b)
Based on the obtained spore germination inhibition rate, the theoretical value (spore germination inhibition rate) was calculated using the Colby's formula. The theoretical value according to the Colby's formula was shown in brackets ( ) in Tables 1 to 6.
In the case where the experimental value is higher than the theoretical value, the composition of the present invention has a synergistic effect on soybean rust fungus.

[2] = system: Rhizoctonia solani; test: Test on mycelial growth inhibition effect against soybean Rhizoctonia rot; assay type: cell-based; conditions: single use, PSA, 20° C., 2 days
Method: Test Example 2: Test on Mycelial Growth Inhibition Effect Against Soybean Rhizoctonia Rot (Rhizoctonia solani)
A colony (4 mmϕ) obtained by preculture was inoculated to PSA containing a chemical agent of a predetermined concentration and, after culture at a room temperature of 20° C. for 2 days, the diameter of the grown colony was measured to determine a mycelial growth inhibition rate. Mycelial growth inhibition rate=(1−A/B)×100 • A: diameter of colony in treated section, B: diameter of colony in untreated section Colby's formula=(X+Y)−XY/100 • X: mycelial growth inhibition rate in single use of ingredient (a) • Y: mycelial growth inhibition rate in single use of ingredient (b)
Based on the obtained experimental value of the mycelial growth inhibition rate, the theoretical value of the mycelial growth inhibition rate was calculated using the Colby's formula. The theoretical value according to the Colby's formula was shown in brackets ( ) in Tables 7 to 11.
In the case where the experimental value is higher than the theoretical value, the composition of the present invention has a synergistic effect on Rhizoctonia solani.

[3] = Phakopsora pachyrhizi, read-out: Spore germination inhibition rate
[4] = Phakopsora pachyrhizi, 0.1 ppm, read-out: Spore germination inhibition rate
[5] = Rhizoctonia solani, 48 h, read-out: Mycelial growth inhibition rate
[6] = Rhizoctonia solani, 48 h, 0.1 ppm, read-out: Mycelial growth inhibition rate
[7] = Rhizoctonia solani, 48 h, 1 ppm, read-out: Mycelial growth inhibition rate

## OC(Cc1ccccc1Cl)(Cn1nc[nH]c1=S)C1(Cl)CC1 (stereo not shown) [Prothioconazole, prothioconazole]
[1]; [3]
  inhibition at 0.01 ppm: 37%
[1]; [4]
  inhibition at 0.1 ppm: 89%

## Cn1cc(C(=O)Nc2cccc3c2[C@@H]2CC[C@H]3C2=C(Cl)Cl)c(C(F)F)n1 (racemic) [Benzovindiflupyr, benzovindiflupyr]
[1]; 0.1 ppm
  Spore germination inhibition rate: 45%
[1]; 1 ppm
  Spore germination inhibition rate: 52%
[2]; 0.1 ppm
  Mycelial growth inhibition rate: 71%

## CC(C)(C)C(O)(CCc1ccc(Cl)cc1)Cn1cncn1 (stereo not shown) [Tebuconazole, tebuconazole]
[1]; [3]
  inhibition at 0.01 ppm: 12%
[1]; [4]
  inhibition at 0.1 ppm: 88%
[2]; [5]
  inhibition at 0.01 ppm: 17%
[2]; [6]
  inhibition at 0.1 ppm: 31%
[2]; [7]
  inhibition at 1 ppm: 70%

## O=[N+]([O-])c1cc(C(F)(F)F)c(Cl)c([N+](=O)[O-])c1Nc1ncc(C(F)(F)F)cc1Cl [Fluazinam, fluazinam]
[1]; [4]
  inhibition at 0.1 ppm: 27%
[1]; Phakopsora pachyrhizi, 1 ppm, read-out: Spore germination inhibition rate
  inhibition at 1 ppm: 71%
[2]; Rhizoctonia solani, 48 h, 0.001 ppm, read-out: Mycelial growth inhibition rate
  inhibition at 0.001 ppm: 2%
[2]; [5]
  inhibition at 0.01 ppm: 14%
[2]; [6]
  inhibition at 0.1 ppm: 73%
[2]; [7]
  inhibition at 1 ppm: 88%
[2]; 0.1 ppm
  Mycelial growth inhibition rate: 78%
[2]; 1 ppm
  Mycelial growth inhibition rate: 92%

## CC(C1CC1)C(O)(Cn1cncn1)c1ccc(Cl)cc1 (stereo not shown) [Cyproconazole, cyproconazole]
[1]; [4]
  inhibition at 0.1 ppm: 9%
[2]; [5]
  inhibition at 0.01 ppm: 7%
[2]; [6]
  inhibition at 0.1 ppm: 34%
[2]; [7]
  inhibition at 1 ppm: 80%

## Cn1cc(C(=O)Nc2ccccc2-c2cc(F)c(F)c(F)c2)c(C(F)F)n1 [Fluxapyroxad, fluxapyroxad]
[1]; 1 ppm
  Spore germination inhibition rate: 41%
[2]; 0.1 ppm
  Mycelial growth inhibition rate: 42%

## Fc1ccc([C@]2(Cn3cncn3)O[C@H]2c2ccccc2Cl)cc1 (racemic) [Epoxiconazole, epoxiconazole]
[1]; [3]
  inhibition at 0.01 ppm: 1%
[1]; [4]
  inhibition at 0.1 ppm: 5%
[2]; [6]
  inhibition at 0.1 ppm: 39%
[2]; [7]
  inhibition at 1 ppm: 83%

Reference: patent US11317627B2, “Soybean disease control composition and soybean disease control method” (priority 2015, dated 2022)
